Results as given in patent US5321030A, “Creatine analogs having antiviral activity” (priority 1991, dated 1994).
Values after ≈ are worked out from the molar mass of the structure shown. Values joined by “and” are separate entries in the source; they are usually repeats but may differ in a detail not shown here. Equal entries are not always repeated. Where two headings read alike, the source gives them in different places.

Experiments:
creatine kinase = creatine kinase (Oryctolagus cuniculus, UniProt P00563); assay: Phosphorylation by creatine kinase, coupled assay with pyruvate kinase and LDH; assay type: biochemical; settings: 40 mM
Chain of creatine kinase (P00563 whole entry): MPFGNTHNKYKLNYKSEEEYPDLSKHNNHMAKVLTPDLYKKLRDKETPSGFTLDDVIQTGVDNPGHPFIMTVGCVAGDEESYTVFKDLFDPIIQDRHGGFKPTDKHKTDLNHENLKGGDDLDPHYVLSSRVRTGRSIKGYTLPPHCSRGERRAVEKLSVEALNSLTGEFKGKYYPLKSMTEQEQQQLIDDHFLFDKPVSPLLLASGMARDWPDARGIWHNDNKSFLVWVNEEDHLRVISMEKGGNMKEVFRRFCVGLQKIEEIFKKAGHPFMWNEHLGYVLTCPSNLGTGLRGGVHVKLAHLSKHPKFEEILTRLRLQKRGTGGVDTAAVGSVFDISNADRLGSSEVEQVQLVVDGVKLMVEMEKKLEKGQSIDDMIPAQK
Method: Compound 5/6 (AM 361), where R=CH3, was prepared as described above and assayed for phosphorylation by creatine kinase in a coupled assay with pyruvate kinase and lactate dehydrogenase (LDH) as described (Bergmeyer, H. U., ed. (1974), In: Methods of Enzymatic Analysis, Second English Edition, Volume 4, (Verlag Chemie Weinheim and Academic Press, Inc.: New York, London) pp. 1772-1779). Each compound listed in Table 11 below was tested at a concentration of 40 mM. Compound 5/6 (AM 361) was slowly phosphorylated.

Vero cells = settings: monkey
HSV-2 = assay: Cytopathic effect (CPE) assay, HSV-2
[1] = newly hatched chicks, 1% in diet, with antibiotics; cited from earlier work
in vivo = assay type: in vivo
DU 145 cells = assay: Drug cytotoxicity in CPE assay, DU 145 cells; settings: 10 mg/ml, 0 PFUs
[2] = Cytotoxicity in plaque reduction assay, CV-1 cells; assay type: cell-based, African Green Monkey; settings: monkey, Table 9B, read-out: CD50 (the source's name)
[3] = system: Vesicular stomatitis virus (VSV), Indiana strain; assay type: cell-based; settings: 62.5 μg/ml-4 mg/ml; Vero cells and BHK-21 cells; scale 0-4; no drug controls 4.0
[4] = system: Murine Cytomegalovirus (MCMV), strain Smith; assay: Plaque reduction, murine cytomegalovirus in C127I cells; assay type: cell-based; settings: Murid betaherpesvirus 1; 10 mg/ml
Adenovirus type 5 = assay: CPE assay, adenovirus in DU 145 cells; assay type: cell-based; settings: 0.3125-10 mg/ml, FIG. 15A
Method: Adenovirus type 5 was obtained from the ATCC. DU 145 cells were obtained from the American Type Culture Collection. Cells were infected with virus and cyclocreatine was assayed for antiviral activity using the cytopathic effect (CPE) assay essentially as described in Example 1.

[5] = Dietary feeding of cyclocreatine, tolerance and uptake; settings: mice, up to 1% of diet for 2 weeks or over 4 weeks
HSV-1 [6] = assay: Plaque assay, plaquing efficiency of HSV-1 in serum-starved Vero cells; assay type: cell-based, Herpes Simplex Type I (HSV-1)
Method: Plaque assays were performed on confluent, serum-starved monolayers of Vero cells in 100 mm dishes (Corning). Growth medium was removed by aspiration and 10 ml of low serum media was added. Monolayers were grown in this medium for 5 days. […] After incubation, the inoculum was removed by aspiration and replaced with 2 ml of agarose-medium maintained at 42° C. The agarose-medium overlay contained a fresh 1:1 mixture of: […] A plaque assay was used to confirm the antiviral activity of cyclocreatine detected in the cytopathogenicity studies described above. Vero cells were grown in 100 mm dishes and were serum-starved. Each dish, with the exception of uninfected controls, was inoculated with HSV-1 virus and incubated with various concentrations of cyclocreatine until plaques appeared in the plates exposed to virus alone.

in vitro [7] = settings: monkey, vero cells
in vitro [8] = settings: guinea pig, gpe cells
HSV-1 [9] = assay: Cytopathic effect (CPE) assay, HSV-1
[10] = system: Influenza A/Port Chalmers/1/73 (H3 N2); assay: CPE-reduction assay, Influenza A in MDCK cells; assay type: cell-based; settings: 62.5 μg/ml-4 mg/ml
[11] = system: Guinea Pig Cytomegalovirus, Strain 22122; assay: CPE reduction assay, guinea pig cytomegalovirus in GPE cells; assay type: cell-based; design: TI50 (CD50 ÷ ED50): unit not given here; settings: for Average CPE: virus controls 4.0
[12] = Cytotoxicity in plaque reduction assay, MRC-5 cells; assay type: cell-based, human; settings: human, mrc-5 cells, read-out: CD50 (the source's name)
Method: (§1) Cytotoxicity was determined by examination of cells (located away from plaques) in infected wells which had been treated with drug.

MRC-5 cells = assay: as above; assay type: cell-based, human; settings: HCMV experiments, 8 days of exposure
Method: as §1

For `NC1=NCCN1CC(=O)O` [cyclocreatine, 1-carboxymethyl-2-iminoimidazolidine], the “% Rate of Creatine” value (creatine kinase) was 46%, the “Δ in Absorbance/min” value (creatine kinase) was 0.54 and the CC50 (Vero cells) was greater than 28 mM. For the same compound, the CD50 (Vero cells) was “greater than 4 mg/ml”, the EC50 (HSV-2; Human alphaherpesvirus 2, Vero, read-out: ED50) was 1690 µg/mL and 11 mM and the EC (60 or 70) (HSV-2; Human alphaherpesvirus 2, Vero, read-out: concentration required to inhibit cytopathogenicity by 60% or 70%) was 35000 µM. The “effect on cytopathic effect” value (HSV-2; contact-inhibited A459 cells) was “inhibited the cytopathic effect”, the “effect on cytopathic effect” value (HSV-2; contact-inhibited BalbC/3T3 cells, FIG. 4A) was “inhibited the cytopathic effect” and the “effect on cytopathic effect” value (HSV-2; serum-starved DU145 cells, FIG. 6A) was “inhibited the cytopathic effect”. For the same compound, the TI (HSV-2; serum-starved Vero cells) was greater than 5.5, the “effect on cytopathic effect” value (HSV-2; serum-starved Vero cells, FIG. 2A) was “inhibits the cytopathic effect” and the “tolerance of dietary cyclocreatine” value [1] was “without significant mortality”. The “tolerance in the diet” value (in vivo; 1% in mouse chow) was “well-tolerated”, the “tolerance in toxicity control” value (in vivo; cream topical, sham-infected mice) was “well-tolerated and caused no adverse effects to the vaginal area” and the survival (in vivo; mouse, in vivo, 1 %, read-out: Survivors/Total (%)) was 100%. The “Weight Change” value (in vivo; uninfected, AM-285 1% dietary, combined animal weights day 0 to day 15) was 7.8 g, the cytotoxicity (DU 145 cells) was “some cytotoxicity” and the CC50 [2] was 5790 µg/mL (≈ 40.4 mM). The CPE grade [3] was 4.0, the inhibition at 10000 µg/mL [4] was 53% and the “effect on cytopathic effect” value (Adenovirus type 5) was “inhibited the cytopathic effect”. The “tolerance of dietary cyclocreatine” value [5] was “without gross adverse effects”, the “effect on plaquing efficiency” value (HSV-1 [6]; FIG. 9) was “reduced the plaquing efficiency” and the number of plaques (HSV-1 [6]; second experiment, 4 mg/ml (755 at 0 mg/ml)) was 120. The CC50 (in vitro [7]) was > 4000 µg/mL and > 28 mM, the CC50 (in vitro [8]) was greater than 10000 µg/mL and the EC50 (HSV-1 [9]; Human alphaherpesvirus 1, Vero, read-out: 50% effective dose (ED50)) was 1270 µg/mL and ~9 mM. For the same compound, the IC20 (HSV-1 [9]; Human alphaherpesvirus 1, Vero, read-out: concentration required for ~20% inhibition) was 35 mM, the EC65 (HSV-1 [9]; Human alphaherpesvirus 1, Vero, read-out: dose required to inhibit cytopathogenicity by 65%) was 35 mM and the “effect on percent monolayer cell death, second set of experiments” value (HSV-1 [9]; Vero cells, 0-200 PFU, series of concentrations) was “consistent dose-dependent inhibition”. For the same compound, the “dose response against cytopathogenicity” value (HSV-1 [9]; Vero cells, 0.31-5.0 mg/ml, FIG. 16) was “shows a dose response”, the “effect on cytopathic effect” value (HSV-1 [9]; contact-inhibited A459 cells, FIG. 7A) was “inhibited the cytopathic effect” and the “effect on cytopathic effect” value (HSV-1 [9]; contact-inhibited BalbC/3T3 cells, FIG. 3A) was “inhibited the cytopathic effect”. The “effect on cytopathic effect” value (HSV-1 [9]; serum-starved DU145 cells, FIG. 5A) was “inhibited the cytopathic effect”, the therapeutic index (HSV-1 [9]; serum-starved Vero cells) was greater than 7.6 and the “effect on cytopathic effect” value (HSV-1 [9]; serum-starved Vero cells, 0.71-4.0 mg/ml, FIG. 1A) was “inhibited the cytopathic effect”. The antiviral activity [10] was “did not display significant antiviral activity”, the “Average CPE” value ([11]; AM-285 156.25 μg/ml) was 4.0 and the “Average CPE” value ([11]; AM-285 312.5 μg/ml) was 4.0. For the same compound, the “Average CPE” value ([11]; AM-285 625 μg/ml) was 3.5, the “Average CPE” value ([11]; AM-285 1250 μg/ml) was 3.3 and the “Average CPE” value ([11]; AM-285 2500 μg/ml) was 2.5. The “Average CPE” value ([11]; AM-285 5000 μg/ml) was 1.7, the “Average CPE” value ([11]; AM-285 10000 μg/ml) was 0.0 and the EC50 ([11]; Caviid betaherpesvirus 2, GPE cells, Table 3, read-out: ED50 (the source's name)) was 3270 µg/mL (≈ 22.9 mM). For the same compound, the “TI50 (CD50 ÷ ED50)” value ([11]; GPE cells, Table 3) was greater than 3.0, the “effect on CPE” value ([11]; between 0.625 and 5.0 mg/ml) was “An inhibitory effect” and the CC50 ([12]; Table 4) was greater than 4000 µg/mL. It also gave a CC50 ([12]; Table 6) greater than 10000 µg/mL, a CC50 ([12]; Table 7) greater than 10000 µg/mL and a CC50 ([12]; Table 9A) greater than 4000 µg/mL. For the same compound, the visible cytotoxicity (MRC-5 cells) was “no visible signs of cytotoxicity”.
